Read-outs that look alike come from different tables or passages of the source. Where only a bound is given, the exact number is not on record here.

In one assay the target is T1, E. coli CsgA (Escherichia coli, UniProt P28307).
T1 construct: made in house; host or cells: E. coli NEB 3016 slyD::kan, pET11d
Nature of the assay: In vitro ThioflavinT assay of CsgA aggregation (CsgA ThT Assay). The assay is classed as biochemical. To be noted: for remaining activity at 25 µM: compound 25 μM; for remaining activity at 100 µM: compound 100 μM. The method, boiled down:
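Purified C-terminal His-tagged CsgA, monomerised by desalting and 30-kDa filtration, at 2-20 μM with 20-40 μM ThT in 50 mM potassium phosphate pH 7.3, 1% DMSO, compounds 3.125-200 uM; room temperature, fluorescence (ex 438/em 495 nm) read every 15 min. Background-subtracted signal expressed as percent inhibition versus vehicle at 6-6.5 or 8-9 h, or as percent control AUC.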

Assay [1] deals with CsgA gene expression (csgBAC promoter-GFP reporter) in E. coli UTI89. Put plainly: In vitro live cell fluorescent reporter assay of CsgA transcription (Reporter Assay). The format is cell-based. The note with it: Escherichia coli. The essentials:
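Compounds at 0.14–100 μM (1% DMSO final) incubated 20 h at 27 °C in YESCA broth with UTI89 carrying a single-copy GFP reporter under the csgBAC intergenic promoter region, inoculum OD600 0.003. Fluorescence normalized to vehicle wells gave IC50 and 50%-of-vehicle concentration; OD600 reduction >10% flagged growth impact.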

[2] abbreviates: read-out: CsgA ThT Assay (2 μM CsgA) % Control Bmax 25 μM, activity range, class symbol, CsgA 2 μM, white plates.
[3] abbreviates: read-out: CsgA ThT Assay (2 μM CsgA) % Control Bmax 25 μM, mean Bmax as percentage of DMSO control, CsgA 2 μM, white plates.
[4] abbreviates: read-out: CsgA ThT Assay (2 μM CsgA) % Control Bmax 100 μM, activity range, class symbol, CsgA 2 μM, white plates.
[5] abbreviates: read-out: CsgA ThT Assay (2 μM CsgA) % Control Bmax 100 μM, mean Bmax as percentage of DMSO control, CsgA 2 μM, white plates.
Where [6] appears, read: read-out: Reporter Assay Abs IC50 (μM), median Abs IC50 in the CsgA reporter assay, N/A = maximum expression reduction is <50% of control.
[7] abbreviates: read-out: Reporter Assay Abs IC50, activity range, class symbol.
The mark [8] stands for this setting: read-out: CsgA ThT Assay (10 μM CsgA) % Control AUC at 1005 minutes, 25 μM (activity range), CsgA 10 μM, black plates, 1005 minutes, class symbol.
[9] abbreviates: read-out: CsgA ThT Assay (10 μM CsgA) % Control AUC at 1005 minutes, 25 μM, mean AUC as % of DMSO control, CsgA 10 μM, black plates, 1005 minutes.
Where [10] appears, read: read-out: Reporter Assay Abs IC50 (activity range), median Abs IC50 in the CsgA reporter assay, class symbol.
Setting [11] is: read-out: CsgA ThT Assay (10 μM CsgA) % Control AUC at 1005 minutes, 100 μM (activity range), CsgA 10 μM, black plates, 1005 minutes, class symbol.
Setting [12] is: read-out: CsgA ThT Assay (10 μM CsgA) % Control AUC at 1005 minutes, 100 μM, mean AUC as % of DMSO control, CsgA 10 μM, black plates, 1005 minutes.

T1 sequence (P28307 23-151): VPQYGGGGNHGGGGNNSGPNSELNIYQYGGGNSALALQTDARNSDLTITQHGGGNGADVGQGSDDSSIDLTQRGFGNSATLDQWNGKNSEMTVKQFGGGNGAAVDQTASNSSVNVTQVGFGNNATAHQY

`NC(=O)c1c(Cc2cccc3ccccc23)c(-c2cccc(C(F)(F)F)c2)c2n(c1=O)C(C(=O)O)CN2Cc1ccccc1` (centres unmarked) [Compound 203, 1-benzyl-6-carbamoyl-7-(naphthalen-1-ylmethyl)-5-oxo-8-(3-(trifluoromethyl)phenyl)-1,2,3,5-tetrahydroimidazo[1,2-a]pyridine-3-carboxylic acid]: the remaining activity at 25 µM at E. coli CsgA (setting [2]) was more than 60%; on E. coli CsgA (setting [3]), 62%. Further, the figures for the remaining activity at 100 µM at E. coli CsgA (setting [4]) and at E. coli CsgA (setting [5]) were more than 60% and 64%, respectively. For the same compound, the concentration for half-maximal inhibition (IC50) is 1.1 µM in assay [1] (setting [6]) and less than 1.3 µM in assay [1] (setting [7]).
For `COc1ccc(CN2C[C@H](C(=O)O)n3c(c(-c4cccc(C(F)(F)F)c4)c(Cc4cccc5ccccc45)cc3=O)S2(=O)=O)cc1` (single isomer, unassigned) [Compound 026b], the figures for the remaining activity at 25 µM at E. coli CsgA (setting [8]) and on E. coli CsgA (setting [9]) were 31 to 60% and 47%, respectively. Also, the values for the IC50 in assay [1] (setting [10]) and in assay [1] (setting [6]) were 1.3 to 4.5 µM and 2.8 µM, respectively.
Turning to `Cn1c(=O)c2c(ncn2CCCCCCN2CC(C(=O)O)n3c(c(-c4cccc(C(F)(F)F)c4)c(Cc4cccc5ccccc45)cc3=O)S2(=O)=O)n(C)c1=O` (centres unmarked) [Compound 035, 2-(6-(1,3-dimethyl-2,6-dioxo-1,2,3,6-tetrahydro-7H-purin-7-yl)hexyl)-8-(naphthalen-1-ylmethyl)-6-oxo-9-(3-(trifluoromethyl)phenyl)-3,4-dihydro-2H,6H-pyrido[1,2-e][1,2,5]thiadiazine-4-carboxylic acid 1,1-dioxide], the values for the remaining activity at 25 µM on E. coli CsgA (setting [8]) and at E. coli CsgA (setting [9]) were more than 60% and 65%, respectively. Also, the concentration for half-maximal inhibition (IC50) in assay [1] (setting [10]) is 1.3 to 4.5 µM; in assay [1] (setting [6]), 1.5 µM.
On to `CCCc1sc2c(-c3cccc(C(F)(F)F)c3)c(Cc3cccc4ccccc34)cc(=O)n2c1C(=O)O` [Compound 061, 7-(naphthalen-1-ylmethyl)-5-oxo-2-propyl-8-(3-(trifluoromethyl)phenyl)-5H-thiazolo[3,2-a]pyridine-3-carboxylic acid], for which the remaining activity at 25 µM on E. coli CsgA (setting [8]) is 31 to 60%; at E. coli CsgA (setting [9]), 44%. The remaining activity at 100 µM was 31 to 60% at E. coli CsgA (setting [11]) and 45% at E. coli CsgA (setting [12]). Besides, the IC50 in assay [1] (setting [10]) is 1.3 to 4.5 µM; in assay [1] (setting [6]), 2.1 µM.
With `CN1CC(C(=O)O)n2c1c(-c1cccc(C(F)(F)F)c1)c(Cc1cccc3ccccc13)cc2=O` (centres unmarked) [Compound 104, 1-methyl-7-(naphthalen-1-ylmethyl)-5-oxo-8-(3-(trifluoromethyl)phenyl)-1,2,3,5-tetrahydroimidazo[1,2-a]pyridine-3-carboxylic acid], the remaining activity at 25 µM at E. coli CsgA (setting [8]) was more than 60%; at E. coli CsgA (setting [9]), 82%. Besides, the remaining activity at 100 µM on E. coli CsgA (setting [11]) is 31 to 60%; on E. coli CsgA (setting [12]) it was 52%. The IC50 in assay [1] (setting [10]) was 4.6 to 10 µM; in assay [1] (setting [6]) it was 6 µM.
Take `O=C(O)C1CN(C2CCCCC2)S(=O)(=O)c2c(-c3cccc(C(F)(F)F)c3)c(Cc3cccc4ccccc34)c(NC3CCCC3)c(=O)n21` (centres unmarked) [Compound 131, 2-cyclohexyl-7-(cyclopentylamino)-8-(naphthalen-1-ylmethyl)-6-oxo-9-(3-(trifluoromethyl)phenyl)-3,4-dihydro-2H,6H-pyrido[1,2-e][1,2,5]thiadiazine-4-carboxylic acid 1,1-dioxide]: the figures for the remaining activity at 25 µM at E. coli CsgA (setting [2]) and at E. coli CsgA (setting [3]) were 31 to 60% and 53%, respectively. For the same compound, the remaining activity at 100 µM was more than 60% on E. coli CsgA (setting [4]) and 94% on E. coli CsgA (setting [5]). Moreover, the half-maximal inhibitory concentration (IC50) was 0.9 µM in assay [1] (setting [6]) and less than 1.3 µM in assay [1] (setting [7]).
Regarding `CCc1c(Cc2cccc3ccccc23)c(-c2cccc(C(F)(F)F)c2)c2n(c1=O)C(C(=O)O)CN(C(C)C)S2(=O)=O` (centres unmarked) [Compound 115, 7-ethyl-2-isopropyl-8-(naphthalen-1-ylmethyl)-6-oxo-9-(3-(trifluoromethyl)phenyl)-3,4-dihydro-2H,6H-pyrido[1,2-e][1,2,5]thiadiazine-4-carboxylic acid 1,1-dioxide], the remaining activity at 25 µM is 31 to 60% at E. coli CsgA (setting [8]) and 35% at E. coli CsgA (setting [9]). In addition, the remaining activity at 100 µM on E. coli CsgA (setting [11]) is 11 to 31%; at E. coli CsgA (setting [12]), 23%. Also, the 50% inhibitory concentration (IC50) in assay [1] (setting [10]) was 4.6 to 10 µM; in assay [1] (setting [6]) it was 7.2 µM.
`O=C(O)CC1CSc2c(-c3cccc(C(F)(F)F)c3)c(Cc3cccc4ccccc34)cc(=O)n21` (centres unmarked) [Compound 129, 2-(7-(naphthalen-1-ylmethyl)-5-oxo-8-(3-(trifluoromethyl)phenyl)-2,3-dihydro-5H-thiazolo[3,2-a]pyridin-3-yl)acetic acid]: the remaining activity at 25 µM is 11 to 31% on E. coli CsgA (setting [8]) and 28% at E. coli CsgA (setting [9]). The values for the remaining activity at 100 µM on E. coli CsgA (setting [11]) and at E. coli CsgA (setting [12]) were more than 60% and 61%, respectively. Besides, the IC50 is 1.3 to 4.5 µM in assay [1] (setting [10]) and 3.4 µM in assay [1] (setting [6]).
For the compound `O=C(O)C1CN(Cc2ccccc2)c2c(-c3ccc(Br)cc3)c(Cc3cccc4ccccc34)c(Cl)c(=O)n21` (centres unmarked) [Compound 201, 1-benzyl-8-(4-bromophenyl)-6-chloro-7-(naphthalen-1-ylmethyl)-5-oxo-1,2,3,5-tetrahydroimidazo[1,2-a]pyridine-3-carboxylic acid], the values for the remaining activity at 25 µM on E. coli CsgA (setting [2]) and on E. coli CsgA (setting [3]) were more than 60% and 70%, respectively. Besides, the remaining activity at 100 µM on E. coli CsgA (setting [4]) is 31 to 60%; on E. coli CsgA (setting [5]), 35%. For the same compound, the IC50 in assay [1] (setting [6]) was 1.8 µM; in assay [1] (setting [7]), 1.3 to 4.5 µM.
Regarding `Nc1c(Cc2cccc3ccccc23)c(-c2cccc(C(F)(F)F)c2)c2n(c1=O)C(C(=O)O)CN(C[C@H](O)[C@@H](O)[C@H](O)[C@H](O)CO)S2(=O)=O` (stereo partly drawn) [Compound 105, 7-amino-8-(naphthalen-1-ylmethyl)-6-oxo-2-((2S,3R,4R,5R)-2,3,4,5,6-pentahydroxyhexyl)-9-(3-(trifluoromethyl)phenyl)-3,4-dihydro-2H,6H-pyrido[1,2-e][1,2,5]thiadiazine-4-carboxylic acid 1,1-dioxide], the remaining activity at 25 µM is more than 60% on E. coli CsgA (setting [8]) and 102% on E. coli CsgA (setting [9]). The remaining activity at 100 µM is more than 60% at E. coli CsgA (setting [11]) and 70% at E. coli CsgA (setting [12]). The IC50 in assay [1] (setting [10]) is more than 10 µM; in assay [1] (setting [6]), 36 µM.
As to `CN1CC(C(=O)O)n2c(c(-c3cccc(C(F)(F)F)c3)c(Cc3cccc4ccccc34)c(C(=O)N3CCCC3)c2=O)S1(=O)=O` (centres unmarked) [Compound 186, 2-methyl-8-(naphthalen-1-ylmethyl)-6-oxo-7-(pyrrolidine-1-carbonyl)-9-(3-(trifluoromethyl)phenyl)-3,4-dihydro-2H,6H-pyrido[1,2-e] [1,2,5] thiadiazine-4-carboxylic acid 1,1-dioxide], the remaining activity at 25 µM at E. coli CsgA (setting [2]) is more than 60%; at E. coli CsgA (setting [3]), 117%. Moreover, the remaining activity at 100 µM on E. coli CsgA (setting [4]) was more than 60%; on E. coli CsgA (setting [5]), 72%. Also, the half-maximal inhibitory concentration (IC50) in assay [1] (setting [6]) is 4.7 µM; in assay [1] (setting [7]) it was 4.6 to 10 µM.
Regarding `O=C(O)C1CN(Cc2ccccc2)c2c(-c3cccc(C(F)(F)F)c3)c(Cc3ccccc3)c(Cl)c(=O)n21` (centres unmarked) [Compound 214, 1,7-dibenzyl-6-chloro-5-oxo-8-(3-(trifluoromethyl)phenyl)-1,2,3,5-tetrahydroimidazo[1,2-a]pyridine-3-carboxylic acid], the remaining activity at 25 µM on E. coli CsgA (setting [2]) was more than 60%; on E. coli CsgA (setting [3]), 90%. Moreover, the remaining activity at 100 µM was more than 60% at E. coli CsgA (setting [4]) and 84% on E. coli CsgA (setting [5]). The figures for the IC50 in assay [1] (setting [6]) and in assay [1] (setting [7]) were 1.8 µM and 1.3 to 4.5 µM, respectively.
Regarding `O=C(O)c1c(Cc2ccccc2)sc2c(-c3cccc(C(F)(F)F)c3)c(Cc3cccc4ccccc34)cc(=O)n12` [Compound 060, 2-benzyl-7-(naphthalen-1-ylmethyl)-5-oxo-8-(3-(trifluoromethyl)phenyl)-5H-thiazolo[3,2-a]pyridine-3-carboxylic acid], the remaining activity at 25 µM on E. coli CsgA (setting [8]) is more than 60%; on E. coli CsgA (setting [9]), 91%. The remaining activity at 100 µM on E. coli CsgA (setting [11]) is more than 60%; on E. coli CsgA (setting [12]) it was 98%. In addition, the results for the IC50 in assay [1] (setting [10]) and in assay [1] (setting [6]) were 1.3 to 4.5 µM and 1.4 µM, respectively.
